Measurements as given in US20090312310A1 (priority 2006, published 2009).

How the values were obtained:
[1] = system: human lung cancer-derived cell line NCI-H460 having wild-type p53; assay: Cell growth inhibition assay (MTT), NCI-H460; format: cell-based; conditions: 72 hours
Procedure: (§1) An anti-cell test was conducted using two cells (human lung cancer-derived cell line NCI-H460 having wild-type p53 and human colon cancer-derived cell line DLD-1 having mutant p53).
(§2) Cells of the respective cell lines were suspended in a medium (RPMI1640 medium containing 10% fetal bovine serum) and these suspensions were inoculated in amounts of 500 cells/150 μL/well and 1000 cells/150 μL/well, respectively, to a 96-well multiwell plate. A test compound was dissolved in DMSO and this solution was diluted with medium to prepare a sample solution (DMSO concentration: 1% or lower). On the next day of inoculation, medium containing DMSO nonsupplemented with the test compound (hereinafter, referred to as a DMSO dilution, DMSO concentration: 1% or lower) or the sample solution was added in an amount of 50 μL/well. MTT assay was conducted immediately after addition of the sample solution or the DMSO dilution to the cells and after culture of the cells (after addition of the sample solution or the DMSO dilution) at 37° C. for 72 hours in a 5% CO2 atmosphere. The MTT assay was conducted as shown below.
(§3) A 5 mg/mL MTT (3-(4,5-dimethylthiazol-2-yl)-2,5-diphenyltetrazolium bromide, Sigma-Aldrich Co., M-2128) solution was prepared using phosphate buffer solutions (Dulbecco's Phosphate-buffered Salines). This MTT solution was added in an amount of 20 μL/well. Then, the plate was cultured at 37° C. for 4 hours in a 5% CO2 atmosphere. The plate was centrifuged at 1200 rpm for 5 minutes and then the culture supernatant was removed by aspiration using a dispenser. DMSO was added in an amount of 150 μL/well to dissolve generated formazan. […] The absorbance of each well was measured under conditions of OD 540 nm and reference 660 nm using a plate reader (SpectraMax PLUS384, Molecular Devices, CA, USA).
(§4) The OD value measured immediately after addition of the sample solution was defined as S. The OD value measured 72 hours after addition of the sample solution was defined as T. The OD value measured 72 hours after addition of the DMSO dilution was defined as C. […]

[2] = system: human colon cancer-derived cell line DLD-1 having mutant p53; assay: Cell growth inhibition assay (MTT), DLD-1; format: cell-based; conditions: DLD-1 (mutant p53), 72 hours
Procedure: as §1, §2, §3, §4

Mdm2/p53 binding = target: T1, Mdm2/p53 binding (Homo sapiens, UniProt Q00987, L33E); assay: Mdm2/p53 binding assay (HTRF, His-p53 / GST-Mdm2); conditions: His-p53 (aa 1-132) and GST-Mdm2 (aa 25-108, L33E), 6.25 nM each; 25° C., 1 hour
T1 construct: having Mdm2 amino acids at positions 25 to 108
Procedure: Next, a test compound was diluted with protein buffer solution containing 10% DMSO, and this test compound dilution was added in an amount of 4 μL/well to the plate.
These dilutions were added in an amount of 8 μL/well (total reaction solution volume: 20 μl/well). Then, the plate was left at 25° C. for 1 hour.
C (correction factor)=(A−BI)/D
The R value calculated from the well supplemented with His-p53, GST-Mdm2, the test compound, and each antibody was defined as R (sample). The R value calculated from the well supplemented with His-p53, GST-Mdm2, and each antibody but without the test compound was defined as R (control). The R value calculated from the well supplemented with GST-Mdm2, the test compound, and each antibody but without His-p53 was defined as R (background). T/C was calculated from the formula shown below. An IC50 value for Mdm2/p53 binding was calculated by sigmoid fitting using Prism (GraphPad Software).
T/C=(R (sample)−R (background))/(R (control)−R (background))

T1 sequence (Q00987 25-108 L33E, species assumed): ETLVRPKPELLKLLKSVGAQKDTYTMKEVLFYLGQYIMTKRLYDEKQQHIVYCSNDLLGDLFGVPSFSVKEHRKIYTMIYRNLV

SMILES | GI50 [1] | GI50 [2] | IC50 (Mdm2/p53 binding) | GI50 ([1]; Homo sapiens) | GI50 ([2]; Homo sapiens)
CC(C)C1=C(C(=O)N2CCC[C@H]2C(=O)N2CCOCC2)SC2=N[C@@](C)(c3ccc(Cl)nc3)[C@@H](c3ccc(Cl)cc3)N21 (single isomer, unassigned; isomer b) [Example 97 (Isomer B)] | 2810 nM | > 50000 nM | 10 nM |  | 
CC(=O)N(C)[C@@H](C)CN(C)C(=O)[C@@H]1CCCN1C(=O)C1=C(C(C)C)N2C(=N[C@@](C)(c3ccc(Cl)cc3)[C@H]2c2ccc(Cl)cc2)S1 [Example 73, N-{(2S)-2-[Acetyl(methyl)amino]propyl}-1-{[(5R,6S)-5,6-bis(4-chlorophenyl)-3-isopropyl-6-methyl-5,6-dihydroimidazo[2,1-b][1,3]thiazol-2-yl]carbonyl}-N-methyl-L-prolinamide] |  |  | 18 nM | 1750 nM | > 50000 nM
CC(C)C1=C(C(=O)N2[C@@H](C)CC[C@H]2C(=O)N(C)C)SC2=N[C@@](C)(c3ccc(Cl)cc3)[C@@H](c3ccc(Cl)cc3)N21 [Example 112, (5S)-1-{[(5R,6S)-5,6-Bis(4-chlorophenyl)-3-isopropyl-6-methyl-5,6-dihydroimidazo[2,1-b][1,3]thiazol-2-yl]carbonyl}-N,N,5-trimethyl-L-prolinamide] |  |  |  | 1380 nM | 40700 nM
